Experiments:
Assay type in all cases: cell-based
Details in all cases: compounds at 50 nM and 500 nM
IKZF2 = molecular target: T1, IKZF2 (Homo sapiens, UniProt Q96SW2+Q9UKS7); experiment: Western blot degradation of IKZF2 in hPBMCs (24 h)
T1 construct: The supernatant was aspirated as the extracted total cell protein; endogenous in cells; host or cells: human peripheral blood mononuclear cells (hPBMCs)
Procedure, shortened: (§1)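 Read-out is Western blot band grayscale, divided by internal control band and normalised to give percent target protein remaining; degradation rate is 1 minus that value. Cells were human PBMCs exposed to compound at 50 nM and 500 nM for 24 hours.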

IKZF3 = molecular target: T2, IKZF3 (Homo sapiens, UniProt Q96SW2+Q9UKT9); experiment: Western blot degradation of IKZF3 in hPBMCs (24 h)
T2 construct: The supernatant was aspirated as the extracted total cell protein; endogenous in cells; host or cells: human peripheral blood mononuclear cells (hPBMCs)
T2 sequence (Q9UKT9 whole entry): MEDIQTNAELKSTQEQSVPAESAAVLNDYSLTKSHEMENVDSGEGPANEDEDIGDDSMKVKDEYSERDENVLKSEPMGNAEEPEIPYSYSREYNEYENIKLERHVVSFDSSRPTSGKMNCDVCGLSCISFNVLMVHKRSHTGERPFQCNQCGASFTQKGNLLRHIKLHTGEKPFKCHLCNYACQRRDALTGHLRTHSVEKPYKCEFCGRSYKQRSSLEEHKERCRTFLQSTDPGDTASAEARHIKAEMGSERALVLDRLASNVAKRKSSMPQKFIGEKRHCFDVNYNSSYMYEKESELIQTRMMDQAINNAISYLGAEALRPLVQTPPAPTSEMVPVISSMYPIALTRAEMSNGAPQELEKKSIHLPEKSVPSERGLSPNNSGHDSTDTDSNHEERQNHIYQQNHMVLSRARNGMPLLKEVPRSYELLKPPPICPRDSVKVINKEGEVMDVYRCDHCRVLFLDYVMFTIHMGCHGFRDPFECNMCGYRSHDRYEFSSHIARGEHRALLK
T2 sequence (Q96SW2 whole entry): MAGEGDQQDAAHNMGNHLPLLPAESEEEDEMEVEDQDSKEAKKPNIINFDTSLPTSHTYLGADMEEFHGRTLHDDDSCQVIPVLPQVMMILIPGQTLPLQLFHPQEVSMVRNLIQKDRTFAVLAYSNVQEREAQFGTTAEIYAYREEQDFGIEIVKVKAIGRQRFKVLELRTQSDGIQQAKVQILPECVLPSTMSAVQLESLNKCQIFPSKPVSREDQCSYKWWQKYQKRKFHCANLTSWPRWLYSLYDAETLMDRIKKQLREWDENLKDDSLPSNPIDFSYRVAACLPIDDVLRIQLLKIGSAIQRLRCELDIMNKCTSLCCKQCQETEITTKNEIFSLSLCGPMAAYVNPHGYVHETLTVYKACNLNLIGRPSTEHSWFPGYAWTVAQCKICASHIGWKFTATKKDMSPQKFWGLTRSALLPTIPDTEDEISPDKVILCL
T2 sequence (Q16531 whole entry partner): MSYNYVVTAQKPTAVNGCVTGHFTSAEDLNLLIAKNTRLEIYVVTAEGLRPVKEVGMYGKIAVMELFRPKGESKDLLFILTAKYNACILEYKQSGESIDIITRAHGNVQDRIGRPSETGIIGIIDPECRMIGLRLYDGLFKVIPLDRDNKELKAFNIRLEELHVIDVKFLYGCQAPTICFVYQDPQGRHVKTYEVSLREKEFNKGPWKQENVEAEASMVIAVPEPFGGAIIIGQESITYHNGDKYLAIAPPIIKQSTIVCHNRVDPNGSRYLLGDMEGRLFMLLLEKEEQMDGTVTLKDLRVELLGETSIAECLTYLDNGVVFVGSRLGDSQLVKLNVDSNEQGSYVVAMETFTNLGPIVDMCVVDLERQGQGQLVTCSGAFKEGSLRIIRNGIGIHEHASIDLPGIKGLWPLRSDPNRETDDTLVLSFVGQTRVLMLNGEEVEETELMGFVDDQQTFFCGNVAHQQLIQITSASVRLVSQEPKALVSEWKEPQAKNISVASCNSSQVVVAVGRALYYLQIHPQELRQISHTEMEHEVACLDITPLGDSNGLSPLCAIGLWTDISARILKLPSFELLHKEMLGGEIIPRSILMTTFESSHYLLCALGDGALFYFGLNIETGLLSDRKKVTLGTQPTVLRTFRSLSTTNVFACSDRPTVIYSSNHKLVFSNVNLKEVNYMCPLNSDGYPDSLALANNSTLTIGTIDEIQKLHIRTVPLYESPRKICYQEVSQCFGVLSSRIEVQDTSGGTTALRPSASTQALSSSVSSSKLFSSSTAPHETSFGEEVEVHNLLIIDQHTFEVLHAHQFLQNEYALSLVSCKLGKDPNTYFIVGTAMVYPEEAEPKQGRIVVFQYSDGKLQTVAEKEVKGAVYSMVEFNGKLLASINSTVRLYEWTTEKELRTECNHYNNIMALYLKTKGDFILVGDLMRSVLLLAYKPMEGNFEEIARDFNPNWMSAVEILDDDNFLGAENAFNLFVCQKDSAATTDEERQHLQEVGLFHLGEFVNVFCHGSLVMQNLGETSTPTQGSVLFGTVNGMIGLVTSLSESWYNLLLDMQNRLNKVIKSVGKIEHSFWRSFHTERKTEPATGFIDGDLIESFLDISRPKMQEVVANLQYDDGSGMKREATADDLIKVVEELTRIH
Procedure, shortened: as §1

CK1α = molecular target: T3, CK1α (Homo sapiens, UniProt P48729+Q96SW2); experiment: Western blot degradation of CK1α in hPBMCs (24 h)
T3 construct: The supernatant was aspirated as the extracted total cell protein; endogenous in cells; host or cells: human peripheral blood mononuclear cells (hPBMCs)
T3 sequence (P48729 whole entry): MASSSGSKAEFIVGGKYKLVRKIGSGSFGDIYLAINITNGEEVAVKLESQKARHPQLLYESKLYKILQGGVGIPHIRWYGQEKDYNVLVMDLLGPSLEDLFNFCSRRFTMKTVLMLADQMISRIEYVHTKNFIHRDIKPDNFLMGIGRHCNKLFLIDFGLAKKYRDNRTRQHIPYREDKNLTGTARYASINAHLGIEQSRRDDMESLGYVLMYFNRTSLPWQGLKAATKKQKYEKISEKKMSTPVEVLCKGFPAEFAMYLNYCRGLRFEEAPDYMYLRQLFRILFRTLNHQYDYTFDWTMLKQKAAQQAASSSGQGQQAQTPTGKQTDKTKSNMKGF
T3 sequence (Q96SW2 whole entry): as the sequence (Q96SW2 whole entry) above
T3 sequence (Q16531 whole entry partner): as the sequence (Q16531 whole entry partner) above
Procedure, shortened: as §1

GSPT1 = molecular target: T4, GSPT1 (Homo sapiens, UniProt P15170+Q96SW2); experiment: Western blot degradation of GSPT1 in hPBMCs (24 h)
T4 construct: The supernatant was aspirated as the extracted total cell protein; endogenous in cells; host or cells: human peripheral blood mononuclear cells (hPBMCs)
T4 sequence (P15170 whole entry): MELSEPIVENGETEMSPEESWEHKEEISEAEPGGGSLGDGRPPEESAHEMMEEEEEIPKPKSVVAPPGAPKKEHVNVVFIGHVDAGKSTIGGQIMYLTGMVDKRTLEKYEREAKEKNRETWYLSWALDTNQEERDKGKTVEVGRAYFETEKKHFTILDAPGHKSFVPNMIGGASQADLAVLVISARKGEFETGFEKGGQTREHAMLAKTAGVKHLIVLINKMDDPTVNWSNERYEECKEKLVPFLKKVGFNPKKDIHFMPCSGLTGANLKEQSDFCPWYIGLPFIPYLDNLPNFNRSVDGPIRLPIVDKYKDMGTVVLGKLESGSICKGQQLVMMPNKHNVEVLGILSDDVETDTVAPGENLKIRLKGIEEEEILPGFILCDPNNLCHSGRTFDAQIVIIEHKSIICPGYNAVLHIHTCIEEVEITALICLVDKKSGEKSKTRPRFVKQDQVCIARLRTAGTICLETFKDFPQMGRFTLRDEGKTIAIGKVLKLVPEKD
T4 sequence (Q96SW2 whole entry): as the sequence (Q96SW2 whole entry) above
T4 sequence (Q16531 whole entry partner): as the sequence (Q16531 whole entry partner) above
Procedure, shortened: as §1

WEE1 = molecular target: T5, WEE1 (Homo sapiens, UniProt P30291+Q96SW2); experiment: Western blot degradation of WEE1 in hPBMCs (24 h)
T5 construct: The supernatant was aspirated as the extracted total cell protein; endogenous in cells; host or cells: human peripheral blood mononuclear cells (hPBMCs)
T5 sequence (P30291 whole entry): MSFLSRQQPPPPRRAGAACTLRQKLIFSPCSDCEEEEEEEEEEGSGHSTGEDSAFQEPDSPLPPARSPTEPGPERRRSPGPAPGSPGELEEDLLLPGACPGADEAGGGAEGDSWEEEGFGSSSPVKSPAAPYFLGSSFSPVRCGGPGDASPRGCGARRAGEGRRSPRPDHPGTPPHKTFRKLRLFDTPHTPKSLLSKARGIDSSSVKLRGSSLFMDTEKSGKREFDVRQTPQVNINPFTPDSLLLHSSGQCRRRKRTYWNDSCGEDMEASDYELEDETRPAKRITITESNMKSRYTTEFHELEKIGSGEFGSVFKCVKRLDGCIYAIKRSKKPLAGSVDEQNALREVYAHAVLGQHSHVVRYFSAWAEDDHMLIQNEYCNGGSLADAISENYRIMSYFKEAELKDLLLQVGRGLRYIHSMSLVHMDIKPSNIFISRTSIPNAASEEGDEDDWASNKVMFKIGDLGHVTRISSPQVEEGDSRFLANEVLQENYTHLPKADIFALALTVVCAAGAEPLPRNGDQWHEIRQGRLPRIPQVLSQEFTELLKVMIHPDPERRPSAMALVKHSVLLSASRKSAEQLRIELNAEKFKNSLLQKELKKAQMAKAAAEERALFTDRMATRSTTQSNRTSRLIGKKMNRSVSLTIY
T5 sequence (Q96SW2 whole entry): as the sequence (Q96SW2 whole entry) above
T5 sequence (Q16531 whole entry partner): as the sequence (Q16531 whole entry partner) above
Procedure, shortened: as §1

IKZF1 = molecular target: T6, IKZF1 (Homo sapiens, UniProt Q13422+Q96SW2); experiment: Western blot degradation of IKZF1 in hPBMCs (24 h)
T6 construct: The supernatant was aspirated as the extracted total cell protein; endogenous in cells; host or cells: human peripheral blood mononuclear cells (hPBMCs)
T6 sequence (Q13422 whole entry): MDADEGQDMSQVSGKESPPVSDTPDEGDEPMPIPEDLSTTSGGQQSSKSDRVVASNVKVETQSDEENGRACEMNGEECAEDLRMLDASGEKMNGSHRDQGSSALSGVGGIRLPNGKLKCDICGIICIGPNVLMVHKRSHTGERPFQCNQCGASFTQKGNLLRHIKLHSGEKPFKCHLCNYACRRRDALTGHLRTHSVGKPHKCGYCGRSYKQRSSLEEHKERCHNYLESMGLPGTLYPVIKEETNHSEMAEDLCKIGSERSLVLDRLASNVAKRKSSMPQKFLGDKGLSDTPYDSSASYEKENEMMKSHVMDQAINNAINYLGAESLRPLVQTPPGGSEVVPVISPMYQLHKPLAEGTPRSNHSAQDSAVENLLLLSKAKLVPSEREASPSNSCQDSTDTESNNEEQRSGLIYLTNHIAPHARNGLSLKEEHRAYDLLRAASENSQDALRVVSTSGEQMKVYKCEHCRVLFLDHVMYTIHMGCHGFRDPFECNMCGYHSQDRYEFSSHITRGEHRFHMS
T6 sequence (Q96SW2 whole entry): as the sequence (Q96SW2 whole entry) above
T6 sequence (Q16531 whole entry partner): as the sequence (Q16531 whole entry partner) above
Procedure, shortened: as §1

Compound	IKZF2 substrate protein remaining % (IKZF2)	IKZF3 substrate protein remaining % (IKZF3)	CK1α substrate protein remaining % (CK1α)	GSPT1 substrate protein remaining % (GSPT1)	WEE1 substrate protein remaining % (WEE1)	IKZF1 substrate protein remaining % (IKZF1)
O=C1CCN(N2C(=O)c3ccc(CN4CCN(c5ncccn5)CC4)cc3C2=O)C(=O)N1 [GT-07285, 2-(2,4-dioxotetrahydropyrimidin-1(2H)-yl)-5-((4-(pyrimidin-2-yl)piperazin-1-yl)methyl)isoindoline-1,3-dione]	B (80%< substrate protein remaining % ≤100%)	B (80%< substrate protein remaining % ≤100%)	B (80%< substrate protein remaining % ≤100%)	B (80%< substrate protein remaining % ≤100%)	A (0% ≤ substrate protein remaining % ≤80%)	A (0% ≤ substrate protein remaining % ≤80%)
O=C1CCN(N2C(=O)c3ccc(CN4CCN(c5nccc(Cl)c5Br)CC4)cc3C2=O)C(=O)N1 [GT-07291, 5-((4-(3-bromo-4-chloropyridin-2-yl)piperazin-1-yl)methyl)-2-(2,4-dioxotetrahydropyrimidin-1(2H)-yl)isoindoline-1,3-dione]	B (80%< substrate protein remaining % ≤100%)	B (80%< substrate protein remaining % ≤100%)	B (80%< substrate protein remaining % ≤100%)	A (0% ≤ substrate protein remaining % ≤80%)	A (0% ≤ substrate protein remaining % ≤80%)	B (80%< substrate protein remaining % ≤100%)
O=C1CCN(N2C(=O)c3ccc(CN4CCCN(C(c5ccccc5)c5ccccc5)CC4)cc3C2=O)C(=O)N1 [GT-07295, 5-((4-benzhydryl-1,4-diazepan-1-yl)methyl)-2-(2,4-dioxotetrahydropyrimidin-1(2H)-yl)isoindoline-1,3-dione]	B (80%< substrate protein remaining % ≤100%)	B (80%< substrate protein remaining % ≤100%)	B (80%< substrate protein remaining % ≤100%)	A (0% ≤ substrate protein remaining % ≤80%)	B (80%< substrate protein remaining % ≤100%)	B (80%< substrate protein remaining % ≤100%)
CC1(C)CCC(CN2CCN(Cc3ccc4c(c3)CN(N3CCC(=O)NC3=O)C4=O)C(C(F)(F)F)C2)=C(c2ccc(Cl)cc2)C1 (stereo not drawn) [GT-07296, 1-(5-((4-((4′-chloro-5,5-dimethyl-3,4,5,6-tetrahydro-[1,1′-biphenyl]-2-yl)methyl)-2-(trifluoromethyl)piperazin-1-yl)methyl)-1-oxoisoindolin-2-yl)dihydropyrimidine-2,4(1H,3H)-dione]	B (80%< substrate protein remaining % ≤100%)	B (80%< substrate protein remaining % ≤100%)	A (0% ≤ substrate protein remaining % ≤80%)	A (0% ≤ substrate protein remaining % ≤80%)	A (0% ≤ substrate protein remaining % ≤80%)	A (0% ≤ substrate protein remaining % ≤80%)
O=C1CCN(N2Cc3cc(CN4CCN(CC5=C(c6ccc(F)cc6)CCCC5)CC4)ccc3C2=O)C(=O)N1 [GT-07297, 1-(5-((4-((4′-fluoro-3,4,5,6-tetrahydro-[1,1′-biphenyl]-2-yl)methyl)piperazin-1-yl)methyl)-1-oxoisoindolin-2-yl)dihydropyrimidine-2,4(1H,3H)-dione]	A (0% ≤ substrate protein remaining % ≤80%)	A (0% ≤ substrate protein remaining % ≤80%)	A (0% ≤ substrate protein remaining % ≤80%)	A (0% ≤ substrate protein remaining % ≤80%)	A (0% ≤ substrate protein remaining % ≤80%)	B (80%< substrate protein remaining % ≤100%)
CC1(C)CCC(CN2CC3CCC2CN3Cc2ccc3c(c2)C(=O)N(N2CCC(=O)NC2=O)C3=O)=C(c2ccc(Cl)cc2)C1 (stereo not drawn) [GT-07300, 5-((5-((4′-chloro-5,5-dimethyl-3,4,5,6-tetrahydro-[1,1′-biphenyl]-2-yl)methyl)-2,5-diazabicyclo[2.2.2]octan-2-yl)methyl)-2-(2,4-dioxotetrahydropyrimidin-1(2H)-yl)isoindoline-1,3-dione]	B (80%< substrate protein remaining % ≤100%)	B (80%< substrate protein remaining % ≤100%)	B (80%< substrate protein remaining % ≤100%)	B (80%< substrate protein remaining % ≤100%)	A (0% ≤ substrate protein remaining % ≤80%)	B (80%< substrate protein remaining % ≤100%)
CC1(C)CCC(CN2CCN(Cc3ccc4c(c3)C(=O)N(N3CCC(=O)NC3=O)C4=O)C(C(F)(F)F)C2)=C(c2ccc(Cl)cc2)C1 (stereo not drawn) [GT-07301, 5-((4-((4′-chloro-5,5-dimethyl-3,4,5,6-tetrahydro-[1,1′-biphenyl]-2-yl)methyl)-2-(trifluoromethyl)piperazin-1-yl)methyl)-2-(2,4-dioxotetrahydropyrimidin-1(2H)-yl)isoindoline-1,3-dione]	B (80%< substrate protein remaining % ≤100%)	B (80%< substrate protein remaining % ≤100%)	B (80%< substrate protein remaining % ≤100%)	A (0% ≤ substrate protein remaining % ≤80%)	B (80%< substrate protein remaining % ≤100%)	B (80%< substrate protein remaining % ≤100%)
O=C1CCN(N2C(=O)c3ccc(CN4CCN(CC5=C(c6ccc(F)cc6)CCCC5)CC4)cc3C2=O)C(=O)N1 [GT-07302, 2-(2,4-dioxotetrahydropyrimidin-1(2H)-yl)-5-((4-((4′-fluoro-3,4,5,6-tetrahydro-[1,1′-biphenyl]-2-yl)methyl)piperazin-1-yl)methyl)isoindoline-1,3-dione]	B (80%< substrate protein remaining % ≤100%)	B (80%< substrate protein remaining % ≤100%)	B (80%< substrate protein remaining % ≤100%)	B (80%< substrate protein remaining % ≤100%)	A (0% ≤ substrate protein remaining % ≤80%)	B (80%< substrate protein remaining % ≤100%)
CC1(C)CC(c2ccc(Cl)cc2)=C(CN2CCN(Cc3ccc4c(c3)C(=O)N(N3CCC(=O)NC3=O)C4=O)CC2)CO1 [GT-07304, 5-((4-((4-(4-chlorophenyl)-6,6-dimethyl-5,6-dihydro-2H-pyran-3-yl)methyl)piperazin-1-yl)methyl)-2-(2,4-dioxotetrahydropyrimidin-1(2H)-yl)isoindoline-1,3-dione]	B (80%< substrate protein remaining % ≤100%)	B (80%< substrate protein remaining % ≤100%)	A (0% ≤ substrate protein remaining % ≤80%)	A (0% ≤ substrate protein remaining % ≤80%)	B (80%< substrate protein remaining % ≤100%)	B (80%< substrate protein remaining % ≤100%)
Cc1ccsc1C1CCN(Cc2ccc3c(c2)CN(N2CCC(=O)NC2=O)C3=O)CC1 [GT-07305, 1-(5-((4-(3-methylthiophen-2-yl)piperidin-1-yl)methyl)-1-oxoisoindolin-2-yl)dihydropyrimidine-2,4(1H,3H)-dione]	A (0% ≤ substrate protein remaining % ≤80%)	A (0% ≤ substrate protein remaining % ≤80%)	B (80%< substrate protein remaining % ≤100%)	A (0% ≤ substrate protein remaining % ≤80%)	B (80%< substrate protein remaining % ≤100%)	B (80%< substrate protein remaining % ≤100%)
Cc1ccsc1C1CCN(Cc2ccc3c(c2)C(=O)N(N2CCC(=O)NC2=O)C3=O)CC1 [GT-07306, 2-(2,4-dioxotetrahydropyrimidin-1(2H)-yl)-5-((4-(3-methylthiophen-2-yl)piperidin-1-yl)methyl)isoindoline-1,3-dione]	B (80%< substrate protein remaining % ≤100%)	A (0% ≤ substrate protein remaining % ≤80%)	B (80%< substrate protein remaining % ≤100%)	A (0% ≤ substrate protein remaining % ≤80%)	B (80%< substrate protein remaining % ≤100%)	B (80%< substrate protein remaining % ≤100%)
CC1(C)CCC(CN2CC3CC2CN3Cc2ccc3c(c2)CN(N2CCC(=O)NC2=O)C3=O)=C(c2ccc(Cl)cc2)C1 (stereo not drawn) [GT-07329, 1-(5-((5-((4′-chloro-5,5-dimethyl-3,4,5,6-tetrahydro-[1,1′-biphenyl]-2-yl)methyl)-2,5-diazabicyclo[2.2.1]heptan-2-yl)methyl)-1-oxoisoindolin-2-yl)dihydropyrimidine-2,4(1H,3H)-dione]	B (80%< substrate protein remaining % ≤100%)	B (80%< substrate protein remaining % ≤100%)	B (80%< substrate protein remaining % ≤100%)	A (0% ≤ substrate protein remaining % ≤80%)	A (0% ≤ substrate protein remaining % ≤80%)	B (80%< substrate protein remaining % ≤100%)

— patent US20260356819A1, “OXOISOINDOLINYL-SUBSTITUTED […] DERIVATIVE AND USE THEREOF” (GLUETACS THERAPEUTICS (SHANGHAI) CO., LTD., priority 2023, published 2026)
